Each compound was assayed against T1, Recombinant HCV polymerase (Hepatitis C virus genotype 1b, UniProt P26663) (assay: HCV Polymerase Inhibition Assay). Settings: primer/template-directed transcription, 30 minutes at 30° C.; category symbol.
T1 construct: 2.5 pmoles (0.15 μg) HCV polymerase protein
T1 sequence (P26663 2420-3010): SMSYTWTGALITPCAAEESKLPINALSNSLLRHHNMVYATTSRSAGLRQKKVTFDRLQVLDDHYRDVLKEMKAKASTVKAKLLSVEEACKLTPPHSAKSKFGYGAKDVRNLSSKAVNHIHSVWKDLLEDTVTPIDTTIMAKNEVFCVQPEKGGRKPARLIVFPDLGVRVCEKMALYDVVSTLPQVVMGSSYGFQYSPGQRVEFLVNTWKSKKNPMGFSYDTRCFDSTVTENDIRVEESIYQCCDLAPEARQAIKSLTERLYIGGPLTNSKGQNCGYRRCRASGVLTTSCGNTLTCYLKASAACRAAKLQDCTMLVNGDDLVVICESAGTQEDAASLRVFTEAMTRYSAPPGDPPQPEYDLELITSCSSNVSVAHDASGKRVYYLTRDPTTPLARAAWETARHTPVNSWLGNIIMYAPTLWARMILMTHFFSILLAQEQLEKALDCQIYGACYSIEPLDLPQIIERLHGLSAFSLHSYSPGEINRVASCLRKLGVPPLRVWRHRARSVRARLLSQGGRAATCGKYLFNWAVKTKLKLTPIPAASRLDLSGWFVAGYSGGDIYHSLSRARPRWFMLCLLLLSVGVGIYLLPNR
Assay type: biochemical
Description: The above-described compounds were tested for activity with HCV polymerase. Recombinant HCV polymerase was tested for its ability to perform primer/template-directed transcription in assays that contained 30 mM tris-HCl pH 7.2, 10 mM MgCl2, 20 mM NaCl, 1 mM Dithiothreitol (DTT), 0.05% Tween-20, 1% glycerol, 5 pmoles biotin-dG12 (primer), 0.5 pmoles poly(rC)300 (template), 1 μM GTP, 0.1–0.3 uCi α-^32P-GTP, and 2.5 pmoles (0.15 μg) HCV polymerase protein in a final volume of 75 μL. Reactions were initiated by addition of enzyme and incubated 30 minutes at 30° C. Reactions were stopped by addition of 33 mM EDTA, and polynucleotide products were collected by filtration through Diethylaminoethyl (DE) Filtermat papers (Wallac). Unincorporated triphosphate was removed by washing the filters with 5% dibasic sodium phosphate. The filters were counted in a Packard Tri-Lux Microbeta scintillation counter (Packard Bioscience, Meriden, Conn.). Compounds to be tested were added at various concentrations, e.g., 1 μm to 50 μm, from stocks in 10% DMSO-water (final DMSO is 1% in reaction).
IC50 values were estimated from the primary cpm data (collected in triplicate) using the formula: cpm (I)=cpm (no inhibitor)(1−([I]/([I]+IC50))). An IC50 value represents the concentration (in μM) of a compound that provides 50% inhibition of polymerase-directed transcription in the above assay. A percent inhibition value is expressed for a compound where it was impractical to calculate an IC50 value with available data. If the IC50 estimated by the above equation was less than 200 nM, it was recalculated using the following equation, which takes into account the enzyme concentration (30 nM) in the assay: cpm(I)=cpm(no inhibitor)(1−((((I+IC50+30e−9)−sqrt(((I+IC50+30e−9)^2)−4×30e−9×I)))/((2) (30e−9))). Curve fitting was performed using the program KaleidaGraph (Synergy Software, Reading, Pa.).
`CCCOc1ccc(CCC2(C3CCCC3)CC(=O)CC(=O)O2)cc1F` (stereo not shown) [Example 72, 6-Cyclopentyl-6-[2-(3-fluoro-4-propoxy-phenyl)-ethyl]-dihydro-pyran-2,4-dione] gave an IC50 of 1 to 10 µM.
With `CC(C)Oc1ccc(CCC2(C3CCCC3)CC(=O)CC(=O)O2)cc1F` (stereo not shown) [Example 73, 6-Cyclopentyl-6-[2-(3-fluoro-4-isopropoxy-phenyl)-ethyl]-dihydro-pyran-2,4-dione] the IC50 was < 1 µM.
`COc1cc(F)c(CCC2(C3CCCC3)CC(=O)CC(=O)O2)cc1F` (stereo not shown) [Example 74, 6-Cyclopentyl-6-[2-(2,5-difluoro-4-methoxy-phenyl)-ethyl]-dihydro-pyran-2,4-dione] showed an IC50 of 1 to 10 µM.
For `CCSc1ccc(CCC2(C3CCCC3)CC(=O)CC(=O)O2)cc1` (stereo not shown) [Example 75, 6-Cyclopentyl-6-[2-(4-ethylsulfanyl-phenyl)-ethyl]-dihydro-pyran-2,4-dione], the IC50 was 1 to 10 µM.
Work on `CN(C)S(=O)(=O)c1ccc(CCC2(C3CCCC3)CC(=O)CC(=O)O2)cc1` (stereo not shown) [Example 76, 4-[2-(2-Cyclopentyl-4,6-dioxo-tetrahydro-pyran-2-yl)-ethyl]-dimethyl-benzenesulfonamide] yielded an IC50 of 10 to 50 µM.
With `O=C1CC(=O)OC(CCc2ccc(OC3CCCC3)c(F)c2)(C2CCCC2)C1` (stereo not shown) [Example 77, 6-Cyclopentyl-6-[2-(4-cyclopentyloxy-3-fluoro-phenyl)-ethyl]-dihydro-pyran-2,4-dione] the IC50 was 1 to 10 µM.
`O=C1CC(=O)OC(CCc2ccc(C3OCCO3)c(F)c2)(C2CCCC2)C1` (stereo not shown) [Example 78, 6-Cyclopentyl-6-[2-(4-[1,3]dioxolan-2-yl-3-fluoro-phenyl)-ethyl]-dihydro-pyran-2,4-dione] gave an IC50 of 1 to 10 µM.
`O=C1CC(=O)OC(CCc2ccc(N3CCCC3=O)cc2)(C2CCCC2)C1` (stereo not shown) [Example 79, 6-Cyclopentyl-6-{2-[4-(2-oxo-pyrrolidin-1-yl)-phenyl]-ethyl}-dihydro-pyran-2,4-dione] gave an IC50 of 1 to 10 µM.
For `O=C1CC(=O)OC(CCc2ccc(N3CCCC3=O)c(F)c2)(C2CCCC2)C1` (stereo not shown) [Example 80, 6-Cyclopentyl-6-{2-[3-fluoro-4-(2-oxo-pyrrolidin-1-yl)-phenyl]-ethyl}-dihydro-pyran-2,4-dione], the IC50 was 1 to 10 µM.
In the case of `CC(C)Oc1ccc(CCC2(C3CCCC3)CC(=O)CC(=O)O2)cc1Cl` (stereo not shown) [Example 81, 6-[2-(3-Chloro-4-isopropoxy-phenyl)-ethyl]-6-cyclopentyl-dihydro-pyran-2,4-dione], the IC50 is reported as < 1 µM.
With `CC1(c2ccc(CCC3(C4CCCC4)CC(=O)CC(=O)O3)cc2Cl)CC(=O)CC(=O)O1` (stereo not shown) [Example 82, 6-Cyclopentyl-[6-(2-Chloro-phenyl)-6-methyl-dihydro-pyran-2,4-dione]-dihydro-pyran-2,4-dione] the IC50 was < 1 µM.
For `O=C1OC(CCc2ccc(O)cc2)(C2CCCC2)CC(O)=C1Sc1ccc2ccccc2c1` (stereo not shown) [Example 83], the IC50 was 1 to 10 µM.
For `O=C1OC(CCc2ccc(O)cc2)(C2CCCC2)CC(O)=C1SCc1ccccc1` (stereo not shown) [Example 84, 3-Benzylsulfanyl-6-cyclopentyl-4-hydroxy-6-[2-(4-hydroxyphenyl)ethyl]-5,6-dihydropyran-2-one], the IC50 was 1 to 10 µM.
`O=C1OC(CCc2ccc(O)cc2)(C2CCCC2)CC(O)=C1Sc1cccc2ccccc12` (stereo not shown) [Example 85, 6-Cyclopentyl-4-hydroxy-6-[2-(4-hydroxyphenyl)ethyl]-3-(naphthalen-1-ylsulfanyl)-5,6-dihydropyran-2-one] showed an IC50 of 1 to 10 µM.
Work on `O=C1OC(CCc2ccc(OCc3ccccc3)cc2)(C2CCCC2)CC(O)=C1Sc1cccc2ccccc12` (stereo not shown) [Example 86, 6-[2-(4-Benzyloxyphenyl)ethyl]-6-cyclopentyl-4-hydroxy-3-(napthalen-1-ylsulfanyl)-5,6-dihydropyran-2-one] yielded an IC50 of 1 to 10 µM.
For `COc1ccc(CCC2(C3CCCC3)CC(O)=C(Cl)C(=O)O2)cc1` (stereo not shown) [Example 87, 3-Chloro-6-cyclopentyl-4-hydroxy-6-[2-(4-methoxyphenyl)ethyl]-5,6-dihydropyran-2-one], the IC50 was 10 to 50 µM.
For `O=C1CC(CCc2ccccc2)(C2CCCC2)OC(=O)C1Cc1ccccc1` (stereo not shown) [Example 88, 3-benzyl-6-cyclopentyl-6-(2-phenylethyl)dihydro-2H-pyran-2,4(3H)-dione], the IC50 was 10 to 50 µM.
`Cc1cc(SC2=C(O)CC(C)(C)OC2=O)c(C(C)(C)C)cc1N` [Example 89, 3-[(4-amino-2-tert-butyl-5-methylphenyl)thio]-4-hydroxy-6,6-dimethyl-5,6-dihydro-2H-pyran-2-one] was tested, and the IC50 was > 50 µM.
With `COc1cc(OC)c(CCC2(C3CCCC3)CC(O)=C(Cl)C(=O)O2)cc1Cl` (stereo not shown) [Example 90] the IC50 was < 1 µM.
With `COc1cc(OC)c(CCC2(C3CCCC3)CC(O)=C(Sc3nc4nc(C)cc(C)n4n3)C(=O)O2)cc1Cl` (stereo not shown) [Example 91, 6-[2-(5-Chloro-2,4-dimethoxyphenyl)ethyl]-6-cyclopentyl-3-[(5,7-dimethyl[1,2,4]triazolo[1,5-a]pyrimidin-2-yl)thio]-4-hydroxy-5,6-dihydro-2H-pyran-2-one] the IC50 was < 1 µM.
With `COc1ccc(CCC2(C3CCCC3)CC(O)=C(Sc3nc4nc(C)cc(C)n4n3)C(=O)O2)cc1` (stereo not shown) [Example 92, 6-[2-(4-methoxyphenyl)ethyl]-6-cyclopentyl-3-[(5,7-dimethyl[1,2,4]triazolo[1,5-a]pyrimidin-2-yl)thio]-4-hydroxy-5,6-dihydro-2H-pyran-2-one] the IC50 was < 1 µM.
For `COc1cc(OC)c(CCC2(C3CCCC3)CC(O)=C(Sc3nc[nH]n3)C(=O)O2)cc1Cl` (stereo not shown) [Example 93, 6-[2-(5-Chloro-2,4-dimethoxyphenyl)ethyl]-6-cyclopentyl-4-hydroxy-3-(1H-1,2,4-triazol-3-ylthio)-5,6-dihydro-2H-puran-2-one], the IC50 was < 1 µM.
In the case of `COc1cc(OC)c(CCC2(C3CCCC3)CC(O)=C(Sc3ccc(C(=O)O)cn3)C(=O)O2)cc1Cl` (stereo not shown) [Example 94, 6-({6-[2-(5-chloro-2,4-dimethoxyphenyl)ethyl]-6-cyclopentyl-4-hydroxy-2-oxo-5,6-dihydro-2H-pyran-3-yl}thio)nicotinic acid], the IC50 is reported as < 1 µM.
`COc1cc(OC)c(CCC2(C3CCCC3)CC(O)=C(Sc3nnc(O)n3C)C(=O)O2)cc1Cl` (stereo not shown) [Example 95, 6-[2(5-chloro-2,4-dimethoxyphenyl)ethyl]-6-cyclopentyl-4-hydroxy-3-[(5-hydroxy-4-methyl-4H-1,2,4-triazol-3-yl)thio]-5,6-dihydro-2H-pyran-2-one] was tested, and the IC50 was < 1 µM.
With `COc1cc(OC)c(CCC2(C3CCCC3)CC(O)=C(Sc3nnc(-c4cccs4)n3C)C(=O)O2)cc1Cl` (stereo not shown) [Example 96, 6-[2-(5-chloro-2,4-dimethoxyphenyl)ethyl]-6-cyclopentyl-4-hydroxy-3-[(4-methyl-5-thien-2-yl 4H-1,2,4-triazol-3-yl)thio]-5,6-dihydro-2-one] the IC50 was < 1 µM.
In the case of `COc1cc(OC)c(CCC2(C3CCCC3)CC(O)=C(Sc3nc(N)c4cn[nH]c4n3)C(=O)O2)cc1Cl` (stereo not shown) [Example 97, 3-[(4-amino-1H-pyrazolo[3,4-d]pyrimidin-6-yl)thio]-6-[2-(5-chloro-2,4-dimethoxyphenyl)ethyl]-6-cyclopentyl-4-hydroxy-5,6-dihydro-2H-pyran-2-one], the IC50 is reported as < 1 µM.
With `COc1cc(OC)c(CCC2(C3CCCC3)CC(O)=C(Sc3ncc(CO)n3C)C(=O)O2)cc1Cl` (stereo not shown) [Example 98, 6-[2-(5-chloro-2,4-dimethoxyphenyl)ethyl]-6-cyclopentyl-4-hydroxy-3-([5-(hydroxymethyl)-1-methyl-1H-imidazol-2-yl]thio)-5,6-dihydro-2H-pyran-2-one] the IC50 was < 1 µM.
For `COc1cc(OC)c(CCC2(C3CCCC3)CC(O)=C(Sc3nc4ccc(C(=O)O)cc4[nH]3)C(=O)O2)cc1Cl` (stereo not shown) [Example 99, 2-({6-[2-(5-chloro-2,4-dimethoxyphenyl)ethyl]-6-cyclopentyl-4-hydroxy-2-oxo-5,6-dihydro-2H-pyran-3-yl}thio)-1H-benzimidazole-5-carboxylic acid], the IC50 was < 1 µM.
In the case of `CCOC(=O)c1cnc(SC2=C(O)CC(CCc3cc(Cl)c(OC)cc3OC)(C3CCCC3)OC2=O)[nH]1` (stereo not shown) [Example 100, Ethyl 2-({6-[2-(5-chloro-2,4-dimethoxyphenyl)ethyl]-6-cyclopentyl-4-hydroxy-2-oxo-5,6-dihydro-2H-pyran-3-yl}thio)-1H-imidazol-4-carboxylate], the IC50 is reported as < 1 µM.
With `COc1ccc(CCC2(C3CCCC3)CC(O)=C(Sc3nc4nc(C)cc(C)n4n3)C(=O)O2)cc1Cl` (stereo not shown) [Example 101, 6-[2-(3-Chloro-4-methoxy-phenyl)-ethyl]-6-cyclopentyl-3-(5,7-dimethyl-[1,2,4]triazolo[1,5-a]pyrimidin-2-ylsulfanyl)-4-hydroxy-5,6-dihydro-pyran-2-one] the IC50 was < 1 µM.
In the case of `COc1ccc(CCC2(C3CCCC3)CC(O)=C(Sc3ccccc3)C(=O)O2)cc1Cl` (stereo not shown) [Example 102, 6-[2-(3-Chloro-4-methoxy-phenyl)-ethyl]-6-cyclopentyl-4-hydroxy-3-phenylsulfanyl-5,6-dihydro-pyran-2-one], the IC50 is reported as < 1 µM.

From US7115658B2 (priority 2002, dated 2006)
